From ChEMBL document CHEMBL6127057, “Design and synthesis of Thieno[3, 2-b]pyridinone derivatives exhibiting potent activities against Mycobacterium tuberculosis in vivo by targeting Enoyl-ACP reductase” (Eur J Med Chem, 2024)
Converted amounts (≈) assume the structure as drawn. The source made the active and inactive calls. The calls are words filed in the database; no cut-off is given here.

Key:
[1] = tested on: Mycobacterium tuberculosis; experiment: Antimycobacterial activity against marker-free avirulent autoluminescent Mycobacterium tuberculosis H37Ra assessed as inhibition of relative light unit relative to control; assay type: functional
[2] = tested on: Mycobacterium tuberculosis; experiment: Antimycobacterial activity against wild-type Mycobacterium tuberculosis H37Rv incubated for 4 weeks by MABA assay; assay type: functional; conditions: 672 h
Candida albicans = experiment: Antifungal activity against Candida albicans assessed as fungal growth inhibition incubated for 48 hrs; assay type: functional
Cryptococcus neoformans = experiment: Antifungal activity against Cryptococcus neoformans assessed as fungal growth inhibition incubated for 72 hrs; assay type: functional
[3] = tested on: Mycobacterium tuberculosis; experiment: Antimycobacterial activity against Mycobacterium tuberculosis UAlRv infection model using mouse RAW264.7 cells assessed as inhibition of bacterial growth incubated for 72 hrs; assay type: functional
Staphylococcus aureus = experiment: Antibacterial activity against Staphylococcus aureus assessed as bacterial growth inhibition incubated for 24 hrs; assay type: functional
[4] = target: T1, Enoyl-[acyl-carrier-protein] reductase [NADH] (Mycobacterium tuberculosis) (UniProt P9WGR1); experiment: Inhibition of C-terminal his-tagged Mycobacterium tuberculosis InhA extracted from Escherichia coli BL21(DE3) cells using trans-2-dodecenoyl-coenzyme A as substrate at 25 microM by UV based analysis
T1 sequence (whole entry): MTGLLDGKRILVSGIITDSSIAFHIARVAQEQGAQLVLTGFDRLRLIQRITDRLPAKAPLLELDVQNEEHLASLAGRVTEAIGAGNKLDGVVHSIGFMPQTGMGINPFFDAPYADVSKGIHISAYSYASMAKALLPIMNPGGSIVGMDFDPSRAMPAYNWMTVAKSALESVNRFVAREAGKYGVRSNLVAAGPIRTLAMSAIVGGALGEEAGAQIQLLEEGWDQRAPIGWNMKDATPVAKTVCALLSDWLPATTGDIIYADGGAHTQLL

Escherichia coli = experiment: Antibacterial activity against Escherichia coli assessed as bacterial growth inhibition incubated for 24 hrs; assay type: functional
L02 = experiment: Cytotoxicity against human L02 cells incubated for 48 hrs by CCK-8 assay; assay type: toxicity, cell-based; conditions: l02, 48 h
[5] = tested on: Mycobacterium tuberculosis; experiment: Antimycobacterial activity against Mycobacterium tuberculosis H37Rv assessed as inhibition of growth by kill kinetic analysis; assay type: functional
[6] = tested on: Mycobacterium tuberculosis; experiment: Antimycobacterial activity against Mycobacterium tuberculosis H37Rv infected in female BALB/c mouse assessed as reduction in relative light unit in spleen at 300 mg/kg, po administered once daily for 5 days; assay type: functional; conditions: time 5 day
[7] = tested on: Mycobacterium tuberculosis; experiment: Antimycobacterial activity against Mycobacterium tuberculosis H37Rv infected in female BALB/c mouse assessed as reduction in relative light unit in lung at 300 mg/kg, po administered once daily for 5 days; assay type: functional; conditions: time 5 day
[8] = Half life in male Sprague-Dawley rat at 1 mg/kg, iv measured upto 240 hrs by LC/MS/MS analysis; assay type: ADME, organism-based; conditions: in vivo
[9] = Tmax in male Sprague-Dawley rat at 100 mg/kg, po measured upto 240 hrs by LC/MS/MS analysis; assay type: ADME, organism-based; conditions: in vivo
[10] = tested on: Mycobacterium tuberculosis; experiment: Antimycobacterial activity against Mycobacterium tuberculosis H37Rv infected in female BALB/c mouse assessed as reduction in relative light unit in lung at 30 mg/kg, po in presence of Rifampicin administered once daily for 5 days; assay type: functional; conditions: time 5 day
[11] = Toxicity in BALB/c mouse infected with Mycobacterium tuberculosis H37Rv assessed as optimal condition at 300 mg/kg, po administered once daily for 5 days; assay type: organism-based; conditions: in vivo, 120 h, time 5 day
[12] = Oral bioavailability in male Sprague-Dawley rat at 100 mg/kg measured upto 240 hrs by LC/MS/MS analysis; assay type: ADME, organism-based; conditions: in vivo
[13] = Half life in male Sprague-Dawley rat at 100 mg/kg, po measured upto 240 hrs by LC/MS/MS analysis; assay type: ADME, organism-based; conditions: in vivo
[14] = tested on: Mycolicibacterium smegmatis; experiment: Antimycobacterial activity against recombinant Mycobacterium smegmatis transfected with pMV261-Mtb InhA assessed as inhibition of bacterial growth at 0.25 to 64 microg/ml incubated for 3 days; assay type: functional; conditions: 72 h, dose 0.25-64 µg/ml, time 3 day
[15] = tested on: Mycobacterium tuberculosis; experiment: Antimycobacterial activity against Mycobacterium tuberculosis H37Rv infected in female BALB/c mouse assessed as reduction in relative light unit in lung at 100 mg/kg, po in presence of Rifampicin administered once daily for 5 days; assay type: functional; conditions: time 5 day
[16] = tested on: Mycobacterium tuberculosis; experiment: Antimycobacterial activity against Mycobacterium tuberculosis H37Rv infected in female BALB/c mouse assessed as reduction in relative light unit in lung, po administered once daily for 5 days; assay type: functional, organism-based; conditions: dose 30-300 mg/kg, time 5.0 day
[17] = AUC (0 to infinity) in male Sprague-Dawley rat at 100 mg/kg, po measured upto 240 hrs by LC/MS/MS analysis; assay type: ADME, organism-based; conditions: in vivo
[18] = tested on: Mycobacterium tuberculosis; experiment: Antimycobacterial activity against Mycobacterium tuberculosis H37Rv infected in female BALB/c mouse assessed as reduction in relative light unit in lung at 100 mg/kg, po administered once daily for 5 days; assay type: functional; conditions: time 5 day
[19] = tested on: Mycolicibacterium smegmatis; experiment: Selectivity ratio of MIC for recombinant Mycobacterium smegmatis transfected with pMV261-Mtb InhA to MIC for recombinant Mycobacterium smegmatis transfected with pMV261; assay type: functional
[20] = Cmax in male Sprague-Dawley rat at 100 mg/kg, po measured upto 240 hrs by LC/MS/MS analysis; assay type: ADME, organism-based; conditions: in vivo
[21] = tested on: Mycolicibacterium smegmatis; experiment: Antimycobacterial activity against recombinant Mycobacterium smegmatis transfected with pMV261 assessed as inhibition of bacterial growth at 0.25 to 64 microg/ml incubated for 3 days; assay type: functional; conditions: 72 h, dose 0.25-64 µg/ml, time 3 day
[22] = AUC (0 to infinity) in male Sprague-Dawley rat at 1 mg/kg, iv measured upto 240 hrs by LC/MS/MS analysis; assay type: ADME, organism-based; conditions: in vivo

Compound: O=c1[nH]c2c(Br)csc2c(O)c1-c1ccc(Cl)cc1F
- MIC90 [1]: 16 µg/mL (≈ 42.7 µM)

Compound: O=c1[nH]c2c(Br)csc2c(O)c1-c1ccc(Cl)cc1Cl
- MIC90 [1]: > 64 µg/mL

Compound: CO[C@H]1/C=C/O[C@@]2(C)Oc3c(C)c(O)c4c(O)c(c(/C=N/N5CCN(C)CC5)c(O)c4c3C2=O)NC(=O)/C(C)=C\C=C\[C@H](C)[C@H](O)[C@@H](C)[C@@H](O)[C@@H](C)[C@H](OC(C)=O)[C@@H]1C [RIFAMPIN]
- MIC [2]: 0.125 µg/mL (≈ 0.152 µM)
- MIC90 [1]: 0.25 µg/mL (≈ 0.304 µM)

Compound: O=c1[nH]c2c(Br)csc2c(O)c1-c1ccc(Br)cc1
- MIC90 [1]: 16 µg/mL (≈ 39.9 µM)

Compound: O=c1[nH]c2c(Br)csc2c(O)c1-c1cccc(Br)c1
- MIC90 [1]: 16 µg/mL (≈ 39.9 µM)

Compound: C[C@@H]1[C@H](O)[C@@H](C)/C=C/C=C/C=C/C=C/C=C/C=C/C=C/[C@H](O[C@@H]2O[C@H](C)[C@@H](O)[C@H](N)[C@@H]2O)C[C@@H]2O[C@](O)(C[C@@H](O)C[C@@H](O)[C@H](O)CC[C@@H](O)C[C@@H](O)CC(=O)O[C@H]1C)C[C@H](O)[C@H]2C(=O)O [AMPHOTERICIN B]
- MIC80 (Candida albicans): 0.125 µg/mL (≈ 0.135 µM)
- MIC80 (Cryptococcus neoformans): 0.5 µg/mL (≈ 0.541 µM)

Compound: O=c1[nH]c2c(Br)csc2c(O)c1-c1ccc(F)cc1
- MIC90 [1]: 2 µg/mL (≈ 5.88 µM)

Compound: CC(C)(C)c1ccc(-c2c(O)c3scc(Br)c3[nH]c2=O)cc1
- MIC90 [1]: > 64 µg/mL

Compound: O=c1[nH]c2c(Br)csc2c(O)c1-c1ccc([N+](=O)[O-])cc1
- MIC90 [1]: 32 µg/mL (≈ 87.2 µM)

Compound: O=c1[nH]c2c(Br)csc2c(O)c1-c1cccc(Cl)c1
- MIC90 [3]: 1 µg/mL (≈ 2.8 µM)
- MIC99 (Staphylococcus aureus): > 64 µg/mL
- inhibition [4]: Active
- MIC99 (Escherichia coli): > 64 µg/mL
- MIC90 [1]: 0.5 µg/mL (≈ 1.4 µM)
- Activity (L02): Toxic

Compound: O=c1[nH]c2c(Br)csc2c(O)c1-c1cccc([N+](=O)[O-])c1
- MIC90 [1]: > 64 µg/mL

Compound: CC1(C)CCC(Cc2cc(O)c(-c3ccccc3)c(=O)[nH]2)CC1
- MIC50 [5]: 0.05 µM (≈ 0.0156 µg/mL)

Compound: O=c1[nH]c2c(Br)csc2c(O)c1-c1ccccc1F
- MIC80 (Candida albicans): > 64 µg/mL
- MIC80 (Cryptococcus neoformans): > 64 µg/mL
- MIC99 (Staphylococcus aureus): > 64 µg/mL
- MIC99 (Escherichia coli): > 64 µg/mL
- MIC90 [1]: 0.5 µg/mL (≈ 1.47 µM)

Compound: O=c1[nH]c2c(Br)csc2c(O)c1-c1cccs1
- MIC90 [1]: 4 µg/mL (≈ 12.2 µM)

Compound: CC1(C)S[C@@H]2[C@H](NC(=O)[C@H](N)c3ccc(O)cc3)C(=O)N2[C@H]1C(=O)O [AMOXICILLIN]
- MIC99 (Staphylococcus aureus): 0.5 µg/mL (≈ 1.37 µM)
- MIC99 (Escherichia coli): 0.05 µg/mL (≈ 0.137 µM)

Compound: O=c1[nH]c2c(Br)csc2c(O)c1-c1ccc2ccccc2c1
- MIC90 [1]: 16 µg/mL (≈ 43 µM)

Compound: NNC(=O)c1ccncc1 [ISONIAZID]
- MIC50 [5]: 0.33 µM (≈ 0.0453 µg/mL)
- MIC [2]: 0.03 µg/mL (≈ 0.219 µM)

Compound: O=c1[nH]c2c(Br)csc2c(O)c1-c1ccc(C(F)(F)F)cc1
- MIC90 [1]: 16 µg/mL (≈ 41 µM)

Compound: N#Cc1cccc(-c2c(O)c3scc(Br)c3[nH]c2=O)c1
- MIC90 [1]: > 64 µg/mL

Compound: O=c1[nH]c2c(Br)csc2c(O)c1-c1ccccc1
- MIC99 (Staphylococcus aureus): > 64 µg/mL
- MIC99 (Escherichia coli): > 64 µg/mL
- MIC90 [1]: 0.5 µg/mL (≈ 1.55 µM)

Compound: Cc1ccccc1-c1c(O)c2scc(Br)c2[nH]c1=O
- MIC80 (Candida albicans): > 64 µg/mL
- MIC80 (Cryptococcus neoformans): > 64 µg/mL
- MIC99 (Staphylococcus aureus): > 64 µg/mL
- MIC99 (Escherichia coli): > 64 µg/mL
- MIC90 [1]: 0.5 µg/mL (≈ 1.49 µM)

Compound: Cc1cccc(-c2c(O)c3scc(Br)c3[nH]c2=O)c1
- Activity [6]: 0.37 log10RLU
- Activity [7]: 0.64 log10RLU
- half-life [8]: 35.6 h
- MIC80 (Candida albicans): > 64 µg/mL
- Tmax [9]: 6 h
- MIC90 [3]: 1 µg/mL (≈ 2.97 µM)
- MIC [2]: 0.5 µg/mL (≈ 1.49 µM)
- MIC80 (Cryptococcus neoformans): > 64 µg/mL
- Activity [10]: 0.29 log10RLU
- Activity [11]: Non-Toxic
- MIC99 (Staphylococcus aureus): > 64 µg/mL
- bioavailability [12]: 16.4%
- half-life [13]: 48 h
- MIC [14]: 4 µg/mL
- inhibition [4]: Active
- Activity [15]: 5.31 log10RLU
- Activity [16]: Dose-Dependent Effect
- AUC [17]: 19700 µM·h
- Activity [18]: 4.93 log10RLU
- MIC99 (Escherichia coli): > 64 µg/mL
- MIC90 [1]: 0.5 µg/mL (≈ 1.49 µM)
- Activity (L02): Toxic
- Selectivity ratio [19]: 2
- Cmax [20]: 283 µM
- MIC [21]: 1 µg/mL
- AUC [22]: 1200 µM·h

Compound: O=c1[nH]c2c(Br)csc2c(O)c1-c1ccccc1Cl
- MIC90 [1]: 1 µg/mL (≈ 2.8 µM)

Compound: O=c1[nH]c2c(Br)csc2c(O)c1-c1cccc(OC(F)(F)F)c1
- MIC90 [1]: > 64 µg/mL

Compound: Cc1ccc(C)c(-c2c(O)c3scc(Br)c3[nH]c2=O)c1
- MIC90 [1]: 32 µg/mL (≈ 91.4 µM)

Compound: COc1ccc(-c2c(O)c3scc(Br)c3[nH]c2=O)cc1
- MIC90 [1]: 16 µg/mL (≈ 45.4 µM)

Compound: O=c1[nH]c2c(Br)csc2c(O)c1-c1cccc(Oc2ccccc2)c1
- MIC90 [1]: 32 µg/mL (≈ 77.2 µM)

Compound: Cc1ccc(-c2c(O)c3scc(Br)c3[nH]c2=O)cc1
- MIC90 [1]: 32 µg/mL (≈ 95.2 µM)

Compound: CC(=O)Oc1c(-c2ccccc2)c(=O)n(C(C)=O)c2c(Br)csc12
- MIC90 [1]: 4 µg/mL (≈ 9.85 µM)

Compound: COc1cccc(-c2c(O)c3scc(Br)c3[nH]c2=O)c1
- MIC90 [1]: 8 µg/mL (≈ 22.7 µM)

Compound: O=c1[nH]c2c(Br)csc2c(O)c1-c1ccco1
- MIC90 [1]: 8 µg/mL (≈ 25.6 µM)

Compound: N#Cc1ccc(-c2c(O)c3scc(Br)c3[nH]c2=O)cc1
- MIC90 [1]: 32 µg/mL (≈ 92.2 µM)

Compound: Cc1csc2c(O)c(-c3ccccc3)c(=O)[nH]c12
- MIC90 [1]: 4 µg/mL (≈ 15.5 µM)

Compound: O=c1[nH]c2c(Br)csc2c(O)c1-c1ccc(Cl)cc1
- MIC90 [1]: > 64 µg/mL

Compound: O=c1[nH]c2c(Br)csc2c(O)c1-c1cccc(F)c1
- MIC80 (Candida albicans): > 64 µg/mL
- MIC80 (Cryptococcus neoformans): > 64 µg/mL
- MIC99 (Staphylococcus aureus): > 64 µg/mL
- MIC99 (Escherichia coli): > 64 µg/mL
- MIC90 [1]: 0.5 µg/mL (≈ 1.47 µM)
